Laboratory results published in publication PMC12677842, “Unveiling the Potential of a New β‐Cyclodextrin‐Suxibuzone Conjugate in Proteasome Regulation” (Chemmedchem, 2025).

Tests used:
[1] = biological target: T1, human 20S proteasome (h20S core particle); test: fluorogenic AMC peptide cleavage by purified h20S (activation; Ch-L EC50 […], T-L EC50 […]); type: biochemical
T1 construct: gene PSMB5

[2] = tested on: T1, human 20S proteasome (h20S core particle); test: fluorogenic AMC peptide cleavage by h20S at […] (activation similar to suxibuzone); type: biochemical

With `CCCCC1(COC(=O)CCC(=O)O)C(=O)N(c2ccccc2)N(c2ccccc2)C1=O` [SB, suxibuzone] as the compound, how does the EC50 [1] read?
The EC50 was 4.4 ± 0.4 µM.

With `CCCCC1(COC(=O)CCC(=O)NCCO)C(=O)N(c2ccccc2)N(c2ccccc2)C1=O` [SB-ETA] as the compound, how does the “fluorogenic AMC peptide cleavage by h20S at 5 and 10 uM (activation similar to s)” value [2] read?
The value was “both test compounds had activity similar to suxibuzone, with no statistically significant difference”.
